Converted amounts (≈) assume the structure as drawn. Where two headings read alike, the source gives them in different places. Values belong to the molecule of their own block, whether it stands above or below them.
Experiments:
Type in all cases: cell-based
Escherichia coli [1] = test: Minimum Inhibitory Concentration (MIC) Method A
Protocol: (§1) A) Minimum Inhibitory Concentration (MIC) Method A
(§2) The MIC test is a test on growth inhibition. Estimation of Minimum Inhibitory Concentration (MIC) is executed in 96 well plates. Through the comparison of bacterial growth curves with positive and negative controls via optical density (OD), different concentrations of given test substances are evaluated.
(§3) Bacteria are cultivated under adjusted conditions based on information of the German Collection of Microorganisms and Cell Cultures (DSMZ) and stored in 50% Glycerol prior to use. Afterwards, the following method was applied:
(§4) Adding growth medium (according to microorganism) to each well of the microplate.
(§5) Adding the test-substances in different concentrations, positive controls (water controls only with medium) and negative controls (benchmarks according to organism).
(§6) Adding the microorganism in a concentration of 10^6 CFU/ml (CFU=colony forming units). Incubation of the microplates at appropriate conditions.
(§7) Aerobic microorganism: optical density is continuously measured (microplate reader) during incubation.
(§8) According to resulting growth curves, substance concentrations are labelled either as inhibiting or normal growth and MIC is defined as the lowest concentration where a clear inhibition is visible. Experiments at concentration limits (highest concentration labelled as growth and lowest concentration labelled as inhibiting) are performed at least twice.

Aspergillus brasiliensis [2] = test: Minimum Inhibitory Concentration (MIC) Method A
Protocol: as §1, §2, §3, §4, §5, §6, §7, §8

Staphylococcus aureus [3] = test: Minimum Inhibitory Concentration (MIC) Method A
Protocol: as §1, §2, §3, §4, §5, §6, §7, §8

[4] = tested on: Staphylococcus epidermidis; test: Minimum Inhibitory Concentration (MIC) Method A
Protocol: as §1, §2, §3, §4, §5, §6, §7, §8

Escherichia coli [5] = test: Minimum Inhibitory Concentration (MIC) Method B, DIN 58940; Synergy Index according to Kull; conditions: Method B (Example 5), E. coli, single substance
Protocol: (§9) B) Minimum Inhibitory Concentration (MIC) Method B
(§10) Test conditions: Evaluation of bactericidal and fungicidal activity in qualitative suspension test (VAH-standard methods, 04-2015). 5 ml of the appropriate dilution of the test product is mixed with 0.1 ml of test suspension and mixed well. After the required action times, the mixture was mixed again. Each 0.1 ml were removed and placed in 5 ml of CSL-bouillon without neutralizing agents.
(§11) In order to calculate the synergy index with MIC values, the Kull equation (I) was used as follows:
(§12) SI=(MICmixture×PA)/MICA+(MICmixture×PB)/MICB (I)
(§13) The synergistic activity of 3-hydroxypropyl caprylate and glyceryl caprylate on several bacterial and fungal reference strains for application in either Deodorant application or as preservative was determined by measuring minimum inhibitory concentrations (MIC values) according to DIN 58940 and method B (method section above).

Staphylococcus hominis [6] = test: as above; conditions: Method B (Example 5), S. hominis, single substance
Protocol: as §9, §10, §11, §12, §13

Aspergillus brasiliensis [7] = test: as above; conditions: Method B (Example 5), A. brasiliensis, single substance
Protocol: as §9, §10, §11, §12, §13

Candida albicans [8] = test: Preservative Efficacy Test (method C)
Protocol: (§14) C) Preservative Efficacy Test
(§15) Test conditions: Sample (1% test substance in adequate formulation (o/w emulsion)) was inoculated with 0.1 ml of the microbial suspensions, homogenized, and incubated at 20° C.-25° C. Colony count was determined after 2, 7, 14, and 28 days of incubation through plating on adequate solid medium.
(§16) 3-hydroxypropyl caprylate was tested in a potential formulation against the microorganisms Escherichia coli, Pseudomonas aeruginosa, Staphylococcus aureus, and Candida albicans using method C. Resulting colony counts are depicted in Table 4.

Pseudomonas aeruginosa = test: Preservative Efficacy Test (method C); conditions: P. aeruginosa; for Colony counts: 1% test substance in o/w emulsion; for Relative colony counts: relative to inoculum = 1.0000
Protocol: as §14, §15, §16

Escherichia coli [9] = test: Preservative Efficacy Test (method C); conditions: E. coli; for Colony counts: 1% test substance in o/w emulsion; for Relative colony counts: relative to inoculum = 1.0000
Protocol: as §14, §15, §16

Staphylococcus aureus [10] = test: Preservative Efficacy Test (method C); conditions: S. aureus; for Colony counts: 1% test substance in o/w emulsion; for Relative colony counts: relative to inoculum = 1.0000
Protocol: as §14, §15, §16

[11] = tested on: Fannyhessea vaginae (Atopobium vaginae); test: Minimum Inhibitory Concentration (MIC) Method B
Protocol: as §10, with “B) Minimum Inhibitory Concentration (MIC) Method B Test” for “Test”

Peptoniphilus lacrimalis = test: Minimum Inhibitory Concentration (MIC) Method B
Protocol: as §10, with “B) Minimum Inhibitory Concentration (MIC) Method B Test” for “Test”

Streptococcus mutans = test: Minimum Inhibitory Concentration (MIC) Method B
Protocol: as §10, with “B) Minimum Inhibitory Concentration (MIC) Method B Test” for “Test”

Trichophyton rubrum = test: Minimum Inhibitory Concentration (MIC) Method B
Protocol: as §10, with “B) Minimum Inhibitory Concentration (MIC) Method B Test” for “Test”

Streptococcus agalactiae = test: Minimum Inhibitory Concentration (MIC) Method B
Protocol: as §10, with “B) Minimum Inhibitory Concentration (MIC) Method B Test” for “Test”

Gardnerella vaginalis = test: Minimum Inhibitory Concentration (MIC) Method B
Protocol: as §10, with “B) Minimum Inhibitory Concentration (MIC) Method B Test” for “Test”

human sebaceous glands = test: Sebum secretion in cultured micro-dissected human sebaceous glands; conditions: human sebaceous glands of Donor 1 and Donor 2; six days culture; different concentrations; vs untreated control
Protocol: Additional tests were performed with human sebaceous glands in order to verify the modulatory activity of a compound on sebum secretion. For this sebaceous glands had been micro-dissected and cultured with medium. The medium without any supplement served as untreated control. Medium with 5 μM Capsaicin served as positive control. Additionally, culture medium was supplemented with different concentrations of 3-hydroxypropyl caprylate. After six days the sebaceous glands were collected and lipids and proteins quantified. The total lipid amount being representative of sebum production was obtained by normalizing the quantified lipids upon the quantified proteins (i.e. mg of lipids/mg of proteins).

Fusobacterium nucleatum = test: Minimum Inhibitory Concentration (MIC) Method A
Protocol: (§17) A) Minimum Inhibitory Concentration (MIC) Method A The MIC test is a test on growth inhibition. Estimation of Minimum Inhibitory Concentration (MIC) is executed in 96 well plates. Through the comparison of bacterial growth curves with positive and negative controls via optical density (OD), different concentrations of given test substances are evaluated. Bacteria are cultivated under adjusted conditions based on information of the German Collection of Microorganisms and Cell Cultures (DSMZ) and stored in 50% Glycerol prior to use. Afterwards, the following method was applied: Adding growth medium (according to microorganism) to each well of the microplate. Adding the test-substances in different concentrations, positive controls (water controls only with medium) and negative controls (benchmarks according to organism). Adding the microorganism in a concentration of 10^6 CFU/ml (CFU=colony forming units). Incubation of the microplates at appropriate conditions. Aerobic microorganism: optical density is continuously measured (microplate reader) during incubation. Anaerobic microorganism: incubation in an anaerobic chamber, measurement of the optical density at the end of the incubation, comparison of the results with positive and negative controls. According to resulting growth curves, substance concentrations are labelled either as inhibiting or normal growth and MIC is defined as the lowest concentration where a clear inhibition is visible. Experiments at concentration limits (highest concentration labelled as growth and lowest concentration labelled as inhibiting) are performed at least twice.

Candida albicans [12] = test: Minimum Inhibitory Concentration (MIC) Method A
Protocol: as §17

Corynebacterium xerosis = test: Minimum Inhibitory Concentration (MIC) Method A
Protocol: as §17

Staphylococcus hominis [13] = test: Minimum Inhibitory Concentration (MIC) Method A
Protocol: as §17

Prevotella intermedia = test: Minimum Inhibitory Concentration (MIC) Method A
Protocol: as §17

Porphyromonas gingivalis = test: Minimum Inhibitory Concentration (MIC) Method A
Protocol: as §17

Epidermophyton floccosum = test: Minimum Inhibitory Concentration (MIC) Method B, DIN 58940; Synergy Index according to Kull; conditions: single substance
Protocol: as §9
5 ml of the appropriate dilution of the test product is mixed with 0.1 ml of test suspension and mixed well. After the required action times, the mixture was mixed again. Each 0.1 ml were removed and placed in 5 ml of CSL-bouillon without neutralizing agents.
as §11, §12
SI is the Synergy Index according to Kull
MICA is the MIC value for Substance A
MICB is the MIC value for Substance B
MICmixture is the MIC value for the mixture of substances A and B
PA is the proportion of the substance A in the mixture
PB is the proportion of the substance B in the mixture

MIC (Escherichia coli [1]): 2500 ppm
MIC (Aspergillus brasiliensis [2]): 2500 ppm
MIC (Staphylococcus aureus [3]): 1000 ppm
MIC [4]: 1000 ppm
Compound: CC(C)(O)CCc1ccccc1 [Dimethyl Phenylbutanol, reference compound]

MIC (Escherichia coli [5]): 1000 µg/mL
MIC (Staphylococcus hominis [6]): 1000 µg/mL
MIC (Aspergillus brasiliensis [7]): 1000 µg/mL
MIC (Escherichia coli [1]; read-out: MIC): 1000 µg/mL (≈ 4940 µM)
MIC (Aspergillus brasiliensis [2]; read-out: MIC): 1000 µg/mL (≈ 4940 µM)
MIC (Staphylococcus aureus [3]; read-out: MIC): 500 µg/mL (≈ 2470 µM)
MIC ([4]; read-out: MIC): 500 µg/mL (≈ 2470 µM)
MIC [11]: 500 µg/mL (≈ 2470 µM)
MIC (Peptoniphilus lacrimalis): 1000 µg/mL (≈ 4940 µM)
MIC (Streptococcus mutans): 5000 µg/mL (≈ 24700 µM)
MIC (Trichophyton rubrum): 500 µg/mL (≈ 2470 µM)
MIC (Streptococcus agalactiae): 10000 µg/mL (≈ 49400 µM)
MIC (Gardnerella vaginalis): 500 µg/mL (≈ 2470 µM)
MIC (Fusobacterium nucleatum): 250 µg/mL (≈ 1240 µM)
MIC (Candida albicans [12]): 500 µg/mL (≈ 2470 µM)
MIC (Corynebacterium xerosis; read-out: MIC): 500 µg/mL (≈ 2470 µM)
MIC (Staphylococcus hominis [13]): 1000 µg/mL (≈ 4940 µM)
MIC (Prevotella intermedia): 125 µg/mL (≈ 618 µM)
MIC (Porphyromonas gingivalis): 250 µg/mL (≈ 1240 µM)
MIC (Epidermophyton floccosum): 500 µg/mL
Compound: CCCCCCCC(=O)OCCCO [3-hydroxypropyl caprylate]
Colony counts (Candida albicans [8]; Day 2, 1% test substance in o/w emulsion, inoculum 4200000): 330000 cfu/g formulation
Relative colony counts (Candida albicans [8]; Day 2, relative to inoculum = 1.0000): 0.0786
Colony counts (Candida albicans [8]; Day 7, 1% test substance in o/w emulsion): >10 cfu/g formulation
Relative colony counts (Candida albicans [8]; Day 7, relative to inoculum = 1.0000): 0.0000
Colony counts (Candida albicans [8]; Day 14, 1% test substance in o/w emulsion): >10 cfu/g formulation
Relative colony counts (Candida albicans [8]; Day 14, relative to inoculum = 1.0000): 0.0000
Colony counts (Candida albicans [8]; Day 28, 1% test substance in o/w emulsion): >10 cfu/g formulation
Relative colony counts (Candida albicans [8]; Day 28, relative to inoculum = 1.0000): 0.0000
Colony counts (Pseudomonas aeruginosa; Day 2, inoculum 4400000): >10 cfu/g formulation
Relative colony counts (Pseudomonas aeruginosa; Day 2): 0.0000
Colony counts (Pseudomonas aeruginosa; Day 7): >10 cfu/g formulation
Relative colony counts (Pseudomonas aeruginosa; Day 7): 0.0000
Colony counts (Pseudomonas aeruginosa; Day 14): >10 cfu/g formulation
Relative colony counts (Pseudomonas aeruginosa; Day 14): 0.0000
Colony counts (Pseudomonas aeruginosa; Day 28): >10 cfu/g formulation
Relative colony counts (Pseudomonas aeruginosa; Day 28): 0.0000
Colony counts (Escherichia coli [9]; Day 2, inoculum 4500000): 15 cfu/g formulation
Relative colony counts (Escherichia coli [9]; Day 2): 0.0000
Colony counts (Escherichia coli [9]; Day 7): >10 cfu/g formulation
Relative colony counts (Escherichia coli [9]; Day 7): 0.0000
Colony counts (Escherichia coli [9]; Day 14): >10 cfu/g formulation
Relative colony counts (Escherichia coli [9]; Day 14): 0.0000
Colony counts (Escherichia coli [9]; Day 28): >10 cfu/g formulation
Relative colony counts (Escherichia coli [9]; Day 28): 0.0000
Colony counts (Staphylococcus aureus [10]; Day 2, inoculum 3500000): 250000 cfu/g formulation
Relative colony counts (Staphylococcus aureus [10]; Day 2): 0.0714 fraction of inoculum
Colony counts (Staphylococcus aureus [10]; Day 7): >10 cfu/g formulation
Relative colony counts (Staphylococcus aureus [10]; Day 7): 0.0000 fraction of inoculum
Colony counts (Staphylococcus aureus [10]; Day 14): >10 cfu/g formulation
Relative colony counts (Staphylococcus aureus [10]; Day 14): 0.0000 fraction of inoculum
Colony counts (Staphylococcus aureus [10]; Day 28): >10 cfu/g formulation
Relative colony counts (Staphylococcus aureus [10]; Day 28): 0.0000 fraction of inoculum
relative change in total lipids (mg of lipids/mg of proteins), representative of sebum production (human sebaceous glands): concentration dependent reduction of total lipids

MIC (Corynebacterium xerosis): low
MIC (Corynebacterium xerosis; read-out: MIC): 250 µg/mL (≈ 968 µM)
Compound: C=CCCCCCCCCC(=O)OCC(O)CO (stereo not shown) [glyceryl monoundecylenate]

MIC (Aspergillus brasiliensis [2]; read-out: MIC): 500 µg/mL (≈ 2060 µM)
MIC (Staphylococcus aureus [3]; read-out: MIC): 500 µg/mL (≈ 2060 µM)
MIC ([4]; read-out: MIC): 64 µg/mL (≈ 264 µM)
MIC (Corynebacterium xerosis; read-out: MIC): 250 µg/mL (≈ 1030 µM)
Compound: C=CCCCCCCCCC(=O)OCCCO [3-hydroxypropyl undecylenate]

MIC (Epidermophyton floccosum): 15000 µg/mL
Compound: CCCC(O)CO (stereo not shown) [Pentylene Glycol, 1,2-Pentanediol]
